We go through 36 compounds from patent US20260256751A1, “COMBINATION OF BETA-2-ADRENERGIC RECEPTOR AGONISTS AND GLP-1 RECEPTOR AGONISTS FOR USE IN TREATING HYPERGLYCAEMIA” (ATROGI AB, priority 2023, published 2026).

Assay [1] has as its system differentiated L6-myotubes. In words: Glucose uptake screen (Biological example 1 of WO 2019/053427). It counts as cell-based. The settings on record: compound at 10 μM, activity relative to isoproterenol at 10 μM, read-out: Biological example 1 of WO 2019/053427 (GU). On the procedure: (§1) Compounds described in publications referenced and incorporated herein were screened in accordance with the procedures outlined in Biological example 1 and Biological example 2 of WO 2019/053427.
L6-myoblasts were grown in Dulbecco's Modified Eagle's Medium (DMEM) containing 1 g/L glucose supplemented with 10% fetal bovine serum (FBS), 2 mM L-glutamine, 50 U/mL penicillin, […] streptomycin and 10 mM HEPES. Cells were plated at 1x 10^5 cells per mL in 24-well plates. After reaching 90% confluence the cells were grown in medium containing 2% FBS for 7 days where upon cells differentiated into myotubes. The differentiated L6-myotubes were serum-starved overnight in medium containing 0.5% fatty-acid free BSA and stimulated with Compound A at a final concentration of 1×10^−5 M in the presence of the selective β2-adrenergic receptor antagonist ICI-118551. After 1 h 40 min the cells were washed with warm, glucose free medium twice and another portion of agonist was added to the glucose free medium. After another 20 min of incubation the cells were exposed to 50 nM ^3H-2-deoxyglucose for 10 min before washed in ice cold glucose free medium three times and lysed in 400 µl/well 0.2 M NaOH for 1 h at 60° C. The cell lysate was mixed with 4 ml scintillation buffer (Emulsifier Safe, Perkin Elmer) and the radioactivity was detected in a P-counter (Tri-Carb 4810TR, Perkin Elmer).

Assay [2] deals with differentiated L6-myotubes. In words: cAMP production relative to isoprenaline (Biological example 2 of WO 2019/053427). The class given is cell-based. The settings on record: 0.25 h, compound at 10 μM, activity relative to isoproterenol at 10 μM.
From the text: For example, the level of cAMP production induced by a given compound can be determined by reference to the amount induced by a defined concentration of that compound relative to that induced by the same concentration of a reference compound, such as isoprenaline, using techniques known to those skilled in the art (e.g. following the protocol as described in the biological examples provided in WO 2019/053427, i.e. in cells, such as differentiated L6-myotubes, having been stimulated with isoprenaline or the compound with a final concentration of 1×10^−5 M, for 15 min in stimulation buffer, such as HBSS supplemented with 1% BSA, 5 mM HEPES and 1 mM IBMX, at pH 7.4).
as §1
In general terms: Cyclic AMP is a second messenger, typically raised through Gs and lowered through Gi signalling.

For `CCCC(C)NCC(O)c1cc(Cl)c(N)c(C(F)(F)F)c1` (stereo not drawn) [Compound 33, 1-[4-amino-3-chloro-5-(trifluoromethyl)phenyl]-2-(1-methylbutylamino)-1-ethanol], the results for the Emax at 10 µM in assay [1] and in assay [2] were 50 to 75% and above 75%, respectively.

`CCCCNCC(O)c1ccc(Cl)c(O)c1` (stereo not drawn) [Compound 34, 2-(butylamino)-1-(4-chloro-3-hydroxyphenyl)-1-ethanol]: the Emax at 10 µM in assay [1] was above 75%; in assay [2], below 25%.

`CCCC(C)NCC(O)c1ccc(Cl)c(O)c1` (stereo not drawn) [Compound 35, 1-(4-chloro-3-hydroxyphenyl)-2-(1-methylbutylamino)-1-ethanol]: the values for the Emax at 10 µM in assay [1] and in assay [2] were above 75% and below 25%, respectively.

With `CCCCNCC(O)c1ccc(Cl)c(N)c1` (stereo not drawn) [Compound 36, 1-(3-amino-4-chlorophenyl)-2-(butylamino)-1-ethanol], the Emax at 10 µM is 25 to 50% in assay [1] and below 25% in assay [2].

As for `CCCCNCC(O)c1cc(F)c(N)c(F)c1` (stereo not drawn) [Compound 37, 1-(4-amino-3,5-difluorophenyl)-2-(butylamino)-1-ethanol], the Emax at 10 µM in assay [1] and in assay [2] was above 75% in each case.

`CCCCNCC(O)c1ccc(F)c(NC(C)=O)c1F` (stereo not drawn) [Compound 42, N-{3-[2-(butylamino)-1-hydroxyethyl]-2,6-difluorophenyl}acetamide]: the Emax at 10 µM is 25 to 50% in assay [1] and below 25% in assay [2].

Turning to `CCCCNCC(O)c1ccc(F)c(N)c1F` (stereo not drawn) [Compound 43, 1-(3-amino-2,4-difluorophenyl)-2-(butylamino)-1-ethanol], the Emax at 10 µM in assay [1] is above 75%; in assay [2] it was below 25%.

On to `CCCCNCC(O)c1ccc(F)c(N)c1` (stereo not drawn) [Compound 44, 1-(3-amino-4-fluorophenyl)-2-(butylamino)-1-ethanol], for which the results for the Emax at 10 µM in assay [1] and in assay [2] were 50 to 75% and below 25%, respectively.

Take `CCC[C@@H]1CCC[C@H]([C@H](O)c2cccc(O)c2)N1` [Compound 45, (R)-[(2R,6R)-6-propyl-2-piperidyl](m-hydroxyphenyl)methanol]: the Emax at 10 µM was above 75% in assay [1] and below 25% in assay [2].

In the case of `CCCCNC[C@H](O)c1ccc(F)cc1` [Compound 46, (R)-2-(butylamino)-1-(p-fluorophenyl)-1-ethanol], the Emax at 10 µM in assay [1] was 50 to 75%; in assay [2] it was below 25%.

As for `CCCCNC[C@H](O)c1cccc(F)c1` [Compound 47, (R)-2-(butylamino)-1-(m-fluorophenyl)-1-ethanol], the Emax at 10 µM is 50 to 75% in assay [1] and below 25% in assay [2].

For `CCCCNCC(O)c1ccncc1` (stereo not drawn) [Compound 48, 2-(butylamino)-1-(4-pyridyl)-1-ethanol], the Emax at 10 µM in assay [1] is 25 to 50%; in assay [2], below 25%.

On to `CCCCNCC(O)c1cccnc1` (stereo not drawn) [Compound 49, 2-(butylamino)-1-(3-pyridyl)-1-ethanol], for which the Emax at 10 µM is 50 to 75% in assay [1] and below 25% in assay [2].

`CCC[C@@H](C)NC[C@H](O)c1cccc(F)c1` [Compound 50, (R)-2-[(R)-1-methylbutylamino]-1-(m-fluorophenyl)-1-ethanol]: the results for the Emax at 10 µM in assay [1] and in assay [2] were above 75% and below 25%, respectively.

As to `CCC[C@H](C)NC[C@H](O)c1cccc(F)c1` [Compound 51, (R)-2-[(S)-1-methylbutylamino]-1-(m-fluorophenyl)-1-ethanol], the figures for the Emax at 10 µM in assay [1] and in assay [2] were above 75% and below 25%, respectively.

As for `CCC[C@@H](C)NC[C@H](O)c1ccc(F)cc1` [Compound 52, (R)-2-[(R)-1-methylbutylamino]-1-(p-fluorophenyl)-1-ethanol], the Emax at 10 µM in assay [1] is 50 to 75%; in assay [2] it was below 25%.

On to `CCC[C@H](C)NC[C@H](O)c1ccc(F)cc1` [Compound 53, (R)-2-[(S)-1-methylbutylamino]-1-(p-fluorophenyl)-1-ethanol], for which the Emax at 10 µM in assay [1] was 50 to 75%; in assay [2], below 25%.

Regarding `CC(C)(C)NC[C@H](O)c1cccc(F)c1` [Compound 54, (R)-2-(tert-butylamino)-1-(m-fluorophenyl)-1-ethanol], the Emax at 10 µM is above 75% in assay [1] and below 25% in assay [2].

On to `CCCCNCC(O)c1cc(F)cc(F)c1` (stereo not drawn) [Compound 55, 2-(butylamino)-1-(3,5-difluorophenyl)-1-ethanol], for which the Emax at 10 µM in assay [1] was 50 to 75%; in assay [2] it was below 25%.

In the case of `CCCCNCC(O)c1ccc(F)c(F)c1` (stereo not drawn) [Compound 56, 2-(butylamino)-1-(3,4-difluorophenyl)-1-ethanol], the Emax at 10 µM in assay [1] was 50 to 75%; in assay [2] it was below 25%.

Regarding `CCC[C@@H]1CC[C@H]([C@H](O)c2cccc(O)c2)N1` [Compound 57, m-{(R)-[(2R,5R)-5-propyl-2-pyrrolidinyl]hydroxymeth-yl}phenol], the Emax at 10 µM was above 75% in assay [1] and 50 to 75% in assay [2].

For the compound `CCC[C@@H]1CC[C@H]([C@H](O)c2cccc(F)c2)N1` [Compound 58, (R)-[(2R,5R)-5-propyl-2-pyrrolidinyl](m-fluorophenyl)methanol], the results for the Emax at 10 µM in assay [1] and in assay [2] were above 75% and 25 to 50%, respectively.

As for `CCC[C@@H]1CCC[C@H]([C@H](O)c2cccc(F)c2)N1` [Compound 59, (R)-[(2R,6R)-6-propyl-2-piperidyl](m-fluorophenyl)methanol], the Emax at 10 µM in assay [1] is 25 to 50%; in assay [2], below 25%.

Turning to `CCC[C@@H]1CCC[C@H]([C@@H](O)c2cccc(F)c2)N1` [Compound 60, (S)-[(2R,6R)-6-propyl-2-piperidyl](m-fluorophenyl)methanol], the Emax at 10 µM is 25 to 50% in assay [1] and below 25% in assay [2].

In the case of `CCCC(C)(C)NC[C@H](O)c1cccc(F)c1` [Compound 61, (R)-2-(1,1-dimethylbutylamino)-1-(m-fluorophenyl)-1-ethanol], the Emax at 10 µM in assay [1] was above 75%; in assay [2], below 25%.

Regarding `CCCCNCC(O)c1cc[nH]c(=O)c1` (stereo not drawn) [Compound 62, 4-[2-(butylamino)-1-hydroyxethyl]-2(1H)-pyridinone], the Emax at 10 µM in assay [1] was 25 to 50%; in assay [2], below 25%.

Regarding `CCCCNCC(O)c1ccc(=O)[nH]c1` (stereo not drawn) [Compound 63, 5-[2-(butylamino)-1-hydroxyethyl]-2(1H)-pyridinone], the figures for the Emax at 10 µM in assay [1] and in assay [2] were 25 to 50% and below 25%, respectively.

With `CCC[C@H]1CCC[C@H]([C@H](O)c2cccc(O)c2)N1` [Compound 64, (R)-[(2R,6S)-6-propyl-2-piperidyl](m-hydroxyphenyl)methanol], the Emax at 10 µM is above 75% in assay [1] and below 25% in assay [2].

On to `CCC[C@H]1CCC[C@H]([C@@H](O)c2ccc(F)c(F)c2)N1` [Compound 65, (S)-[(2R,6S)-6-propyl-2-piperidyl](3,4-difluorophenyl)methanol], for which the figures for the Emax at 10 µM in assay [1] and in assay [2] were 25 to 50% and below 25%, respectively.

Consider `CCC[C@H]1CCC[C@H]([C@@H](O)c2cc(F)cc(F)c2)N1` [Compound 66, (S)-[(2R,6S)-6-propyl-2-piperidyl](3,5-difluorophenyl)methanol], for which the Emax at 10 µM was 25 to 50% in assay [1] and below 25% in assay [2].

`CCC[C@H]1CCC[C@H]([C@H](O)c2ccc(F)c(F)c2)N1` [Compound 67, (R)-[(2R,6S)-6-propyl-2-piperidyl](3,4-difluorophenyl)methanol]: the values for the Emax at 10 µM in assay [1] and in assay [2] were 25 to 50% and below 25%, respectively.

For the compound `CCC[C@H]1CCC[C@H]([C@H](O)c2cc(F)cc(F)c2)N1` [Compound 68, (R)-[(2R,6S)-6-propyl-2-piperidyl](3,5-difluorophenyl)methanol], the Emax at 10 µM in assay [1] was 50 to 75%; in assay [2], below 25%.

`CCC[C@H]1CCC[C@H]([C@H](O)c2cccc(F)c2)N1` [Compound 69, (R)-[(2R,6S)-6-propyl-2-piperidyl](m-fluorophenyl)methanol]: the results for the Emax at 10 µM in assay [1] and in assay [2] were 50 to 75% and below 25%, respectively.

For the compound `CCC[C@H]1CCC[C@H]([C@@H](O)c2cccc(F)c2)N1` [Compound 70, (S)-[(2R,6S)-6-propyl-2-piperidyl](m-fluorophenyl)methanol], the Emax at 10 µM in assay [1] is 50 to 75%; in assay [2], below 25%.

Regarding `CCCCNC[C@H](O)c1csc(N)n1` [Compound 71, (S)-1-(2-amino-1,3-thiazol-4-yl)-2-(butylamino)-1-ethanol], the Emax at 10 µM in assay [1] was 25 to 50%; in assay [2], below 25%.

Regarding `CCCCNC[C@H](O)c1csc(C(F)(F)F)n1` [Compound 72, (S)-2-(butylamino)-1-[2-(trifluoromethyl)-1,3-thiazol-4-yl]-1-ethanol], the Emax at 10 µM was 25 to 50% in assay [1] and below 25% in assay [2].
